Data reported in PubChem BioAssay AID1963974 (Molecular Pharmacology Branch, DTP, NCI, 2024).

System: 648629-189-R-J1-PDC spheroids with HUVEC/MSC, viability
Assay: Anticancer human tumor 648629-189-R-J1-PDC patient-derived bladder carcinoma cell line growth inhibition [PI3K]
Details: for IC50: curve of first compound; for viability, T/C: stronger effect = lower value
Summary of the method: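 Stroma-containing spheroids: tumor line, pooled-donor HUVEC, hMSC. Treatments: targeted agents with PI3K inhibitors. Dosing: clinically relevant, half-log spacing, 10 microM ceiling without known Cmax. Read-out: cell viability.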

[1] = second compound 0.0316 µM, first compound 0.0316 µM
[2] = second compound 0.0316 µM, first compound 0.1 µM
[3] = second compound 0.0316 µM, first compound 0.316 µM
[4] = second compound 0.0316 µM, first compound 1 µM
[5] = second compound 0.0316 µM, first compound 3.16 µM
[6] = second compound 0.0316 µM, first compound 10 µM
[7] = second compound 0.1 µM, first compound 0.0316 µM
[8] = second compound 0.1 µM, first compound 0.1 µM
[9] = second compound 0.1 µM, first compound 0.316 µM
[10] = second compound 0.1 µM, first compound 1 µM
[11] = second compound 0.1 µM, first compound 3.16 µM
[12] = second compound 0.1 µM, first compound 10 µM
[13] = second compound 0.316 µM, first compound 0.0316 µM
[14] = second compound 0.316 µM, first compound 0.1 µM
[15] = second compound 0.316 µM, first compound 0.316 µM
[16] = second compound 0.316 µM, first compound 1 µM
[17] = second compound 0.316 µM, first compound 3.16 µM
[18] = second compound 0.316 µM, first compound 10 µM
[19] = second compound 1 µM, first compound 0.0316 µM
[20] = second compound 1 µM, first compound 0.1 µM
[21] = second compound 1 µM, first compound 0.316 µM
[22] = second compound 1 µM, first compound 1 µM
[23] = second compound 1 µM, first compound 3.16 µM
[24] = second compound 1 µM, first compound 10 µM
[25] = second compound 3.16 µM, first compound 0.0316 µM
[26] = second compound 3.16 µM, first compound 0.1 µM
[27] = second compound 3.16 µM, first compound 0.316 µM
[28] = second compound 3.16 µM, first compound 1 µM
[29] = second compound 3.16 µM, first compound 3.16 µM
[30] = second compound 3.16 µM, first compound 10 µM
[31] = second compound 10 µM, first compound 0.0316 µM
[32] = second compound 10 µM, first compound 0.1 µM
[33] = second compound 10 µM, first compound 0.316 µM
[34] = second compound 10 µM, first compound 1 µM
[35] = second compound 10 µM, first compound 3.16 µM
[36] = second compound 10 µM, first compound 10 µM
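Further: spheroids exposed to agents for seven days before reading.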
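Wherever viability, T/C is given: percent of vehicle control luminescence where 100% = DMSO treated spheroids.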

With `C#Cc1c(F)ccc2cc(O)cc(-c3ncc4c(N5CC6CCC(C5)N6)nc(OCC56CCCN5CC(F)C6)nc4c3F)c12` (stereo not drawn) + CC(Nc1ncnc2nc[nH]c12)c1cc2cccc(Cl)c2c(=O)n1-c1ccccc1 the IC50 (second compound 0.0316 µM) was greater than 10 µM, the IC50 (second compound 0.1 µM) was greater than 10 µM and the IC50 (second compound 0.316 µM) was greater than 10 µM. For the same compound, the IC50 (second compound 1 µM) was greater than 10 µM, the IC50 (second compound 3.16 µM) was greater than 10 µM and the IC50 (second compound 10 µM) was greater than 10 µM. It also gave a viability, T/C [1] of 116%, a viability, T/C [2] of 114% and a viability, T/C [3] of 103%. It also gave a viability, T/C [4] of 107%, a viability, T/C [5] of 105% and a viability, T/C [6] of 117%. For the same compound, the viability, T/C [7] was 116%, the viability, T/C [8] was 100% and the viability, T/C [9] was 104%. The viability, T/C [10] was 106%, the viability, T/C [11] was 117% and the viability, T/C [12] was 110%. For the same compound, the viability, T/C [13] was 102%, the viability, T/C [14] was 110% and the viability, T/C [15] was 101%. For the same compound, the viability, T/C [16] was 113%, the viability, T/C [17] was 116% and the viability, T/C [18] was 111%. The viability, T/C [19] was 92.8%, the viability, T/C [20] was 104% and the viability, T/C [21] was 107%. It also gave a viability, T/C [22] of 114%, a viability, T/C [23] of 107% and a viability, T/C [24] of 94.4%. For the same compound, the viability, T/C [25] was 92%, the viability, T/C [26] was 91.4% and the viability, T/C [27] was 90.7%. It also gave a viability, T/C [28] of 90.1%, a viability, T/C [29] of 93.4% and a viability, T/C [30] of 88.1%. The viability, T/C [31] was 90.7%, the viability, T/C [32] was 86.1% and the viability, T/C [33] was 75.7%. The viability, T/C [34] was 102%, the viability, T/C [35] was 92.5% and the viability, T/C [36] was 80.3%.

`CC(Cn1ccc(-c2ccc(C#N)c(Cl)c2)n1)NC(=O)c1cc(C(C)O)[nH]n1` (stereo not drawn) + CC(Nc1ncnc2nc[nH]c12)c1cc2cccc(Cl)c2c(=O)n1-c1ccccc1 was tested, and the IC50 (second compound 0.0316 µM) was greater than 10 µM, the IC50 (second compound 0.1 µM) was greater than 10 µM and the IC50 (second compound 0.316 µM) was greater than 10 µM. The IC50 (second compound 1 µM) was greater than 10 µM, the IC50 (second compound 3.16 µM) was greater than 10 µM and the IC50 (second compound 10 µM) was greater than 10 µM. For the same compound, the viability, T/C [1] was 99.4%, the viability, T/C [2] was 91.1% and the viability, T/C [3] was 116%. For the same compound, the viability, T/C [4] was 94%, the viability, T/C [5] was 105% and the viability, T/C [6] was 84.5%. The viability, T/C [7] was 99%, the viability, T/C [8] was 89.3% and the viability, T/C [9] was 115%. For the same compound, the viability, T/C [10] was 108%, the viability, T/C [11] was 108% and the viability, T/C [12] was 80.5%. For the same compound, the viability, T/C [13] was 97.9%, the viability, T/C [14] was 99% and the viability, T/C [15] was 95.2%. The viability, T/C [16] was 119%, the viability, T/C [17] was 99.4% and the viability, T/C [18] was 87.3%. For the same compound, the viability, T/C [19] was 107%, the viability, T/C [20] was 93.8% and the viability, T/C [21] was 106%. For the same compound, the viability, T/C [22] was 113%, the viability, T/C [23] was 90.8% and the viability, T/C [24] was 80%. The viability, T/C [25] was 92.2%, the viability, T/C [26] was 96% and the viability, T/C [27] was 94.7%. It also gave a viability, T/C [28] of 91.3%, a viability, T/C [29] of 92.4% and a viability, T/C [30] of 69.5%. It also gave a viability, T/C [31] of 78.4%, a viability, T/C [32] of 93.3% and a viability, T/C [33] of 86.8%. It also gave a viability, T/C [34] of 79.7%, a viability, T/C [35] of 89.7% and a viability, T/C [36] of 69%.

For `CC1(C)CCC(Nc2ncc(C(F)(F)F)c(-c3c[nH]c4c(P(C)(C)=O)c(C#N)ccc34)n2)CN1` (stereo not drawn) + CC(Nc1ncnc2nc[nH]c12)c1cc2cccc(Cl)c2c(=O)n1-c1ccccc1, the IC50 (second compound 0.0316 µM) was less than 0.0316 µM, the IC50 (second compound 0.1 µM) was less than 0.0316 µM and the IC50 (second compound 0.316 µM) was less than 0.0316 µM. It also gave an IC50 (second compound 1 µM) of less than 0.0316 µM, an IC50 (second compound 3.16 µM) of less than 0.0316 µM and an IC50 (second compound 10 µM) of less than 0.0316 µM. It also gave a viability, T/C [1] of 35.1%, a viability, T/C [2] of 29% and a viability, T/C [3] of 35.4%. For the same compound, the viability, T/C [4] was 35.2%, the viability, T/C [5] was 43% and the viability, T/C [6] was 11.7%. The viability, T/C [7] was 36.7%, the viability, T/C [8] was 33.5% and the viability, T/C [9] was 28.3%. It also gave a viability, T/C [10] of 36%, a viability, T/C [11] of 39.6% and a viability, T/C [12] of 10.8%. It also gave a viability, T/C [13] of 32%, a viability, T/C [14] of 29.4% and a viability, T/C [15] of 29.1%. For the same compound, the viability, T/C [16] was 31.8%, the viability, T/C [17] was 39.1% and the viability, T/C [18] was 11.5%. It also gave a viability, T/C [19] of 30.6%, a viability, T/C [20] of 32.4% and a viability, T/C [21] of 29.8%. The viability, T/C [22] was 31.6%, the viability, T/C [23] was 42% and the viability, T/C [24] was 10.1%. The viability, T/C [25] was 34%, the viability, T/C [26] was 29.2% and the viability, T/C [27] was 28.9%. It also gave a viability, T/C [28] of 30.7%, a viability, T/C [29] of 36.2% and a viability, T/C [30] of 7.47%. The viability, T/C [31] was 39.7%, the viability, T/C [32] was 32% and the viability, T/C [33] was 33.3%. The viability, T/C [34] was 30.2%, the viability, T/C [35] was 34.7% and the viability, T/C [36] was 4.52%.

Compound `Cn1cnc2c(F)c(Nc3ccc(Br)cc3Cl)c(C(=O)NOCCO)cc21` + COc1c(OCCCN2CCOCC2)ccc2c3n(c(=NC(=O)c4cnc(N)nc4)nc12)CCN3 has an IC50 (second compound 0.00316 µM) greater than 3 µM, an IC50 (second compound 0.01 µM) greater than 3 µM and an IC50 (second compound 0.0316 µM) greater than 3 µM. The IC50 (second compound 0.1 µM) was greater than 3 µM, the IC50 (second compound 0.316 µM) was less than 0.00949 µM and the IC50 (second compound 1 µM) was less than 0.00949 µM. It also gave a viability, T/C (second compound 0.00316 µM, first compound 0.00949 µM) of 121%, a viability, T/C (second compound 0.00316 µM, first compound 0.03 µM) of 82.1% and a viability, T/C (second compound 0.00316 µM, first compound 0.0949 µM) of 101%. It also gave a viability, T/C (second compound 0.00316 µM, first compound 0.3 µM) of 83.6%, a viability, T/C (second compound 0.00316 µM, first compound 0.949 µM) of 96.6% and a viability, T/C (second compound 0.00316 µM, first compound 3 µM) of 92.3%. It also gave a viability, T/C (second compound 0.01 µM, first compound 0.00949 µM) of 103%, a viability, T/C (second compound 0.01 µM, first compound 0.03 µM) of 90.2% and a viability, T/C (second compound 0.01 µM, first compound 0.0949 µM) of 99.2%. It also gave a viability, T/C (second compound 0.01 µM, first compound 0.3 µM) of 89.3%, a viability, T/C (second compound 0.01 µM, first compound 0.949 µM) of 90.5% and a viability, T/C (second compound 0.01 µM, first compound 3 µM) of 92.7%. It also gave a viability, T/C (second compound 0.0316 µM, first compound 0.00949 µM) of 90%, a viability, T/C (second compound 0.0316 µM, first compound 0.03 µM) of 93.8% and a viability, T/C (second compound 0.0316 µM, first compound 0.0949 µM) of 102%. The viability, T/C (second compound 0.0316 µM, first compound 0.3 µM) was 87%, the viability, T/C (second compound 0.0316 µM, first compound 0.949 µM) was 80.8% and the viability, T/C (second compound 0.0316 µM, first compound 3 µM) was 78.6%. It also gave a viability, T/C (second compound 0.1 µM, first compound 0.00949 µM) of 62.4%, a viability, T/C (second compound 0.1 µM, first compound 0.03 µM) of 59.3% and a viability, T/C (second compound 0.1 µM, first compound 0.0949 µM) of 59%. For the same compound, the viability, T/C (second compound 0.1 µM, first compound 0.3 µM) was 73.5%, the viability, T/C (second compound 0.1 µM, first compound 0.949 µM) was 64.4% and the viability, T/C (second compound 0.1 µM, first compound 3 µM) was 59.4%. The viability, T/C (second compound 0.316 µM, first compound 0.00949 µM) was 20.6%, the viability, T/C (second compound 0.316 µM, first compound 0.03 µM) was 25.5% and the viability, T/C (second compound 0.316 µM, first compound 0.0949 µM) was 24.7%. The viability, T/C (second compound 0.316 µM, first compound 0.3 µM) was 28%, the viability, T/C (second compound 0.316 µM, first compound 0.949 µM) was 33.7% and the viability, T/C (second compound 0.316 µM, first compound 3 µM) was 32.3%. The viability, T/C (second compound 1 µM, first compound 0.00949 µM) was 3.08%, the viability, T/C (second compound 1 µM, first compound 0.03 µM) was 3.98% and the viability, T/C (second compound 1 µM, first compound 0.0949 µM) was 2.82%. The viability, T/C (second compound 1 µM, first compound 0.3 µM) was 3.55%, the viability, T/C (second compound 1 µM, first compound 0.949 µM) was 2.39% and the viability, T/C (second compound 1 µM, first compound 3 µM) was 1.24%.
